# According to US6706663B2, “Herbicidal 3-heterocyclic substituted benzisothiazole and benzisoxazole compounds” (Wyeth, priority 2000, dated 2004):
# How the values were obtained:
# [1] = system: ECHCG (Echinochloa crus-galli); assay: Postemergence herbicidal evaluation; assay type: in vivo, (L.) Beau
# Procedure, shortened: (§1)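 Seedlings grown about two weeks in flats, sprayed, then kept under standard greenhouse care. Rated visually 4–5 weeks after treatment on a 0–9 scale (stand, vigour, malformation, size, chlorosis, overall appearance) relative to untreated control; repeat tests averaged.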
# SETVI (Setaria viridis) = assay: Postemergence herbicidal evaluation; assay type: in vivo, (L.) Beau
# Procedure, shortened: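 Ratings use a 0-9 visual scale covering stand, vigor, malformation, size, chlorosis and appearance versus a control, scored 4-5 weeks post-spray. Roughly two-week-old seedlings received about 0.0040-1.000 kg/ha active, applied in 50/50 acetone/water with 0.5% TWEEN 20. Multiple tests per compound were averaged.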
# [2] = system: TRZAWR (Wheat, Winter, cv Riband); assay: Postemergence herbicidal evaluation; assay type: in vivo, Triticum aestivum
# Procedure, shortened: as §1
# [3] = system: ABUTH (Abutilon theophrasti); assay: Preemergence herbicidal evaluation; assay type: in vivo, Medic.; details: preemergence, rated 4-5 weeks after treatment
# [4] = system: AMBEL (Ambrosia artemisifolia); assay: Preemergence herbicidal evaluation; assay type: in vivo, L.; details: preemergence, rated 4-5 weeks after treatment
# Procedure, shortened: (§2)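 Applied before emergence as an aqueous acetone spray over seeded soil. Read-out: 0–9 visual rating covering plant stand, vigor, size, chlorosis, malformation and overall appearance compared with control, taken 4–5 weeks after spraying.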
# [5] = system: CASOB (Cassia obtusifolia); assay: Preemergence herbicidal evaluation; assay type: in vivo, L.; details: preemergence, rated 4-5 weeks after treatment
# Procedure, shortened: as §2
# [6] = system: CHEAL (Chenopodium album); assay: Preemergence herbicidal evaluation; assay type: in vivo, L.; details: preemergence, rated 4-5 weeks after treatment
# Procedure, shortened: as §2
# [7] = system: IPOHE (Ipomoea hederacea); assay: Preemergence herbicidal evaluation; assay type: in vivo, (L.) Jacq.; details: preemergence, rated 4-5 weeks after treatment
# [8] = system: GLXMAW (Soybean, Williams); assay: Preemergence herbicidal evaluation; assay type: in vivo, Glycine max, (L.) Merr. cv Williams; details: preemergence, rated 4-5 weeks after treatment
# ZEAMX (Corn, Field) = assay: Preemergence herbicidal evaluation; assay type: in vivo, Zea mays, L.; details: preemergence, rated 4-5 weeks after treatment
# [9] = system: ECHORC (Echinochloa oryzoides); assay: Flooded paddy, preemergence weed control; assay type: in vivo, Echinochloa oryzoides (Ard.) Fritsch.; details: rated 3-4 weeks after treatment, 0-9 rating scale
# Procedure, shortened: (§3)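 Silt loam, sowing depth ≤0.5 cm; permanent flood 1.5–3 cm above soil; greenhouse culture after treatment. Readout: 0-9 visual scale (stand, vigor, malformation, size, chlorosis, appearance) vs control.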
# CYPIR (Cyperus iria) = assay: Flooded paddy, preemergence weed control; assay type: in vivo; details: rated 3-4 weeks after treatment, 0-9 rating scale
# Procedure, shortened: as §3
# [10] = system: CYPSE (Cyperus serotinus); assay: Flooded paddy, preemergence weed control; assay type: in vivo, Rottb.; details: rated 3-4 weeks after treatment, 0-9 rating scale
# Procedure, shortened: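 Herbicidal effect was scored visually on a 0–9 scale against an untreated control 3–4 weeks after treatment. Compounds were applied preemergence as 50/50 v/v aqueous/acetone mixtures into flood water (1.5–3 cm deep over silt loam), at roughly 0.0080 to 0.1250 kg/ha active ingredient.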
# [11] = system: MOOVA (Monochoria vaginalis); assay: Flooded paddy, preemergence weed control; assay type: in vivo, Presl.; details: rated 3-4 weeks after treatment, 0-9 rating scale
# Procedure, shortened: as §3
# [12] = system: SAGPY (Sagittaria pygmaea); assay: Flooded paddy, preemergence weed control; assay type: in vivo, L.; details: rated 3-4 weeks after treatment, 0-9 rating scale
# Procedure, shortened: as §3
# ORYSAT (Rice, Tebonnet) = assay: Flooded paddy, post-transplant rice tolerance; assay type: in vivo, Oryza sativa, (L.) Tebonnet; details: flooded paddy, post-transplant rice, rated 3-4 weeks after treatment, 0-9 rating scale
# Procedure, shortened: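 Visual 0–9 injury rating against a control, covering stand, vigor, malformation, size, chlorosis and overall appearance. Treatment was post-transplant onto flooded containers (water 1.5–3 cm deep, silt loam) holding two ten-day-old cv. Tebonnet seedlings, maintained on greenhouse benches.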
smiles,measurement,setting,value
"CC1CCOC(c2nsc3ccc(-n4c(=O)cc(C(F)(F)F)n(C)c4=O)cc23)O1 (stereo not shown) [Compound 37, 1-methyl-3-[3-(4-methyl-m-dioxan-2-yl)-1,2-benzisothiazol-5-yl]-6-(trifluoromethyl)uracil]","Postemergence herbicidal rating, ECHCG",[1]; rate 0.0320 kg/ha,4.0
same,"Postemergence herbicidal rating, ECHCG",[1]; rate 0.0620 kg/ha,4.0
same,"Postemergence herbicidal rating, SETVI",SETVI (Setaria viridis); rate 0.0320 kg/ha,9.0
same,"Postemergence herbicidal rating, SETVI",SETVI (Setaria viridis); rate 0.0620 kg/ha,9.0
same,"Postemergence herbicidal rating, TRZAWR",[2]; rate 0.0320 kg/ha,5.0
same,"Postemergence herbicidal rating, TRZAWR",[2]; rate 0.0620 kg/ha,7.0
same,ABUTH preemergence herbicidal rating,[3]; Rate 0.0620 kg/ha,9.0
same,ABUTH preemergence herbicidal rating,[3]; Rate 0.1250 kg/ha,9.0
same,ABUTH preemergence herbicidal rating,[3]; Rate 0.2500 kg/ha,9.0
same,AMBEL preemergence herbicidal rating,[4]; Rate 0.0620 kg/ha,9.0
same,AMBEL preemergence herbicidal rating,[4]; Rate 0.1250 kg/ha,9.0
same,AMBEL preemergence herbicidal rating,[4]; Rate 0.2500 kg/ha,9.0
same,CASOB preemergence herbicidal rating,[5]; Rate 0.0620 kg/ha,7.0
same,CASOB preemergence herbicidal rating,[5]; Rate 0.1250 kg/ha,8.0
same,CASOB preemergence herbicidal rating,[5]; Rate 0.2500 kg/ha,9.0
same,CHEAL preemergence herbicidal rating,[6]; Rate 0.0620 kg/ha,9.0
same,CHEAL preemergence herbicidal rating,[6]; Rate 0.1250 kg/ha,9.0
same,CHEAL preemergence herbicidal rating,[6]; Rate 0.2500 kg/ha,9.0
same,IPOHE preemergence herbicidal rating,[7]; Rate 0.0620 kg/ha,7.0
same,IPOHE preemergence herbicidal rating,[7]; Rate 0.1250 kg/ha,8.0
same,IPOHE preemergence herbicidal rating,[7]; Rate 0.2500 kg/ha,7.0
same,GLXMAW preemergence herbicidal rating,[8]; Rate 0.0620 kg/ha,9.0
same,GLXMAW preemergence herbicidal rating,[8]; Rate 0.1250 kg/ha,9.0
same,GLXMAW preemergence herbicidal rating,[8]; Rate 0.2500 kg/ha,9.0
same,ZEAMX preemergence herbicidal rating,"ZEAMX (Corn, Field); Rate 0.0620 kg/ha",9.0
same,ZEAMX preemergence herbicidal rating,"ZEAMX (Corn, Field); Rate 0.1250 kg/ha",9.0
same,ZEAMX preemergence herbicidal rating,"ZEAMX (Corn, Field); Rate 0.2500 kg/ha",9.0
same,"herbicidal rating, ECHORC",[9]; rate 0.0080 kg/ha,3.0
same,"herbicidal rating, ECHORC",[9]; rate 0.0320 kg/ha,9.0
same,"herbicidal rating, ECHORC",[9]; rate 0.1250 kg/ha,9.0
same,"herbicidal rating, CYPIR",CYPIR (Cyperus iria); rate 0.0080 kg/ha,0.0
same,"herbicidal rating, CYPIR",CYPIR (Cyperus iria); rate 0.0320 kg/ha,9.0
same,"herbicidal rating, CYPIR",CYPIR (Cyperus iria); rate 0.1250 kg/ha,9.0
same,"herbicidal rating, CYPSE",[10]; rate 0.0320 kg/ha,9.0
same,"herbicidal rating, CYPSE",[10]; rate 0.1250 kg/ha,9.0
same,"herbicidal rating, MOOVA",[11]; rate 0.0080 kg/ha,3.0
same,"herbicidal rating, MOOVA",[11]; rate 0.0320 kg/ha,9.0
same,"herbicidal rating, SAGPY",[12]; rate 0.0080 kg/ha,0.0
same,"herbicidal rating, SAGPY",[12]; rate 0.0320 kg/ha,7.0
same,"herbicidal rating, SAGPY",[12]; rate 0.1250 kg/ha,9.0
same,"herbicidal rating, ORYSAT (rice tolerance)","ORYSAT (Rice, Tebonnet); rate 0.0080 kg/ha",5.0
same,"herbicidal rating, ORYSAT (rice tolerance)","ORYSAT (Rice, Tebonnet); rate 0.0320 kg/ha",8.5
same,"herbicidal rating, ORYSAT (rice tolerance)","ORYSAT (Rice, Tebonnet); rate 0.1250 kg/ha",9.0
